Literature values in patent US6057161A (priority 1997, dated 2000).
Like-named read-outs stand apart in the source and are kept apart here.

Structure (SMILES)	metabolism, accumulation or excretion (in words) (body)	time found in the urine after administration of heroin (in vivo)	further results
CN1[C@H]2CC[C@@H]1[C@@H](C(=O)O)[C@@H](OC(=O)c1ccccc1)C2 [Benzoylecgonine]	can be detected in the urine for a longer period of time than ecgonine methyl ester	–	–
COC(=O)[C@H]1[C@@H](OC(=O)c2ccccc2)C[C@@H]2CC[C@H]1N2C [Cocaine]	–	–	metabolism, accumulation or excretion (in words) (in vivo): rapidly metabolized in the body
CN1CC[C@]23c4c5ccc(O[C@@H]6O[C@H](C(=O)O)[C@@H](O)[C@H](O)[C@H]6O)c4O[C@H]2[C@@H](O)C=C[C@H]3[C@H]1C5 [Morphine-3-glucoronide, morphine-3-glucuronide]	–	up to 40 hours	–
CN1CC[C@]23c4c5ccc(O)c4O[C@H]2[C@@H](O)C=C[C@H]3[C@H]1C5 [Morphine]	–	up to 40 hours	–
CCCCCc1cc(O)c2c(c1)OC(C)(C)[C@@H]1CCC(C(=O)O)=C[C@@H]21 [THC-COOH]	excreted in the urine as a glucuronic acid conjugate at detectable levels	–	–
